{"source": "patent US4252970A", "about": "“6-Deoxyneamines” (The Upjohn Company, priority 1979, dated 1981)", "assay_type_in_all_cases": "cell-based", "key": {"Ps. aeruginosa UC 95 [1]": {"tested_on": "Ps. aeruginosa UC 95", "experiment": "standard microplate test in BHI Agar (MIC)", "conditions": "Pseudomonas aeruginosa, UC95, 37°, 20 hours, read-out: Minimum Inhibitory Concentration", "experimental": "(§1) The compounds VII, XI, XVβ, XVα and XVI were tested in a standard microplate test in BHI (Brain Heart Infusion) Agar at a concentration of 1 mg./ml. and dilutions thereof at 37° incubation temperature. The end points are read at 20 hours. BHI Agar is supplied by Difco Laboratories, Detroit, Michigan, U.S.A. and has the following compositions: […]"}, "S. aureus UC 76": {"tested_on": "S. aureus UC 76", "experiment": "standard microplate test in BHI Agar (MIC)", "conditions": "Staphylococcus aureus, UC76, 37°, 20 hours, read-out: Minimum Inhibitory Concentration", "experimental": "as §1"}, "P. rettgeri UC 339": {"tested_on": "P. rettgeri UC 339", "experiment": "standard microplate test in BHI Agar (MIC)", "conditions": "Providencia rettgeri, UC339, 37°, 20 hours, read-out: Minimum Inhibitory Concentration", "experimental": "as §1"}, "K. pneumoniae UC 58": {"tested_on": "K. pneumoniae UC 58", "experiment": "standard microplate test in BHI Agar (MIC)", "conditions": "Klebsiella pneumoniae, UC58, 37°, 20 hours, read-out: Minimum Inhibitory Concentration", "experimental": "as §1"}, "S. faecalis UC 694": {"tested_on": "S. faecalis UC 694", "experiment": "standard microplate test in BHI Agar (MIC)", "conditions": "Enterococcus faecalis, UC694, 37°, 20 hours, read-out: Minimum Inhibitory Concentration", "experimental": "as §1"}, "S. marcescens UC 131": {"tested_on": "S. marcescens UC 131", "experiment": "standard microplate test in BHI Agar (MIC)", "conditions": "Serratia marcescens, UC131, 37°, 20 hours, read-out: Minimum Inhibitory Concentration", "experimental": "as §1"}, "S. pyogenes UC 152": {"tested_on": "S. pyogenes UC 152", "experiment": "standard microplate test in BHI Agar (MIC)", "conditions": "Streptococcus pyogenes, UC152, 37°, 20 hours, read-out: Minimum Inhibitory Concentration", "experimental": "as §1"}, "E. coli UC 51": {"tested_on": "E. coli UC 51", "experiment": "standard disc plate assay, zones of inhibition (12.5 mm paper discs)", "source_text": "(§2) The compounds of formulas (V, VII, IX, XI, XIV, XVI, and XIX) are active as antibacterials and can be used in various environments to erradicate or control susceptible microorganisms. Tables I and II set forth the in vitro antibacterial test results for representative compounds of the present invention. The results were obtained with a standard disc plate assay using 12.5 mm paper discs."}, "P. vulgaris UC 93": {"tested_on": "P. vulgaris UC 93", "experiment": "standard disc plate assay, zones of inhibition (12.5 mm paper discs)", "source_text": "as §2"}, "S. schottmuelleri UC 126": {"tested_on": "S. schottmuelleri UC 126", "experiment": "standard disc plate assay, zones of inhibition (12.5 mm paper discs)", "source_text": "as §2"}, "S. aureus UC 80": {"tested_on": "S. aureus UC 80", "experiment": "standard disc plate assay, zones of inhibition (12.5 mm paper discs)", "source_text": "as §2"}, "B. cereus UC 3145": {"tested_on": "B. cereus UC 3145", "experiment": "standard disc plate assay, zones of inhibition (12.5 mm paper discs)", "conditions": "1 mg/ml", "source_text": "as §2"}, "Ps. aeruginosa UC 95 [2]": {"tested_on": "Ps. aeruginosa UC 95", "experiment": "standard disc plate assay, zones of inhibition (12.5 mm paper discs)", "conditions": "1 mg/ml", "source_text": "as §2"}, "B. subtilis UC 564": {"tested_on": "B. subtilis UC 564", "experiment": "standard disc plate assay, zones of inhibition (12.5 mm paper discs)", "source_text": "as §2"}, "K. pneumoniae UC 57": {"tested_on": "K. pneumoniae UC 57", "experiment": "standard disc plate assay, zones of inhibition (12.5 mm paper discs)", "source_text": "as §2"}}}
{"compound": "C[C@@]1(O)C[C@H](N)C[C@H](N)[C@H]1O[C@H]1O[C@H](CN)[C@@H](O)[C@H](O)[C@H]1N", "note": "[6-Deoxy-5-methyl-neamine]", "values": [{"measurement": "MIC", "setting": "Ps. aeruginosa UC 95 [1]", "value": "> 500", "unit": "µg/mL"}, {"measurement": "MIC", "setting": "S. aureus UC 76", "value": 15.6, "unit": "µg/mL"}, {"measurement": "MIC", "setting": "P. rettgeri UC 339", "value": "> 500", "unit": "µg/mL"}]}
{"compound": "NC[C@H]1O[C@H](O[C@H]2[C@H](O)C[C@H](N)C[C@@H]2N)[C@H](N)[C@@H](O)[C@@H]1O", "note": "[6-deoxyneamine (XI), 6-Deoxyneamine]", "values": [{"measurement": "MIC", "setting": "K. pneumoniae UC 58", "value": 7.8, "unit": "µg/mL"}, {"measurement": "MIC", "setting": "S. faecalis UC 694", "value": "> 500", "unit": "µg/mL"}, {"measurement": "MIC", "setting": "Ps. aeruginosa UC 95 [1]", "value": "> 500", "unit": "µg/mL"}, {"measurement": "MIC", "setting": "S. marcescens UC 131", "value": 250, "unit": "µg/mL"}, {"measurement": "MIC", "setting": "S. pyogenes UC 152", "value": 15.6, "unit": "µg/mL"}, {"measurement": "MIC", "setting": "P. rettgeri UC 339", "value": 250, "unit": "µg/mL"}]}
{"compound": "NC[C@H]1O[C@H](O[C@H]2[C@H](O)[C@@H](O)[C@H](N)C[C@@H]2N)[C@H](N)[C@@H](O)[C@@H]1O", "note": "[Neamine]", "values": [{"measurement": "Zones of Inhibition", "setting": "E. coli UC 51; 0.1 mg/ml", "value": 18, "unit": "mm"}, {"measurement": "Zones of Inhibition", "setting": "E. coli UC 51; 1 mg/ml", "value": 25, "unit": "mm"}, {"measurement": "Zones of Inhibition", "setting": "P. vulgaris UC 93; 0.1 mg/ml", "value": 15, "unit": "mm"}, {"measurement": "Zones of Inhibition", "setting": "P. vulgaris UC 93; 1 mg/ml", "value": 28, "unit": "mm"}, {"measurement": "Zones of Inhibition", "setting": "S. schottmuelleri UC 126; 0.1 mg/ml", "value": 15, "unit": "mm"}, {"measurement": "Zones of Inhibition", "setting": "S. schottmuelleri UC 126; 1 mg/ml", "value": 23, "unit": "mm"}, {"measurement": "Zones of Inhibition", "setting": "S. aureus UC 80; 0.1 mg/ml", "value": 18, "unit": "mm"}, {"measurement": "Zones of Inhibition", "setting": "S. aureus UC 80; 1 mg/ml", "value": 26, "unit": "mm"}, {"measurement": "Zones of Inhibition", "setting": "B. cereus UC 3145", "value": 23, "unit": "mm"}, {"measurement": "Zones of Inhibition", "setting": "Ps. aeruginosa UC 95 [2]", "value": 18, "unit": "mm"}, {"measurement": "Zones of Inhibition", "setting": "B. subtilis UC 564; 0.1 mg/ml", "value": 28, "unit": "mm"}, {"measurement": "Zones of Inhibition", "setting": "B. subtilis UC 564; 1 mg/ml", "value": 37, "unit": "mm"}, {"measurement": "Zones of Inhibition", "setting": "K. pneumoniae UC 57; 0.1 mg/ml", "value": 26, "unit": "mm"}, {"measurement": "Zones of Inhibition", "setting": "K. pneumoniae UC 57; 1 mg/ml", "value": 32, "unit": "mm"}]}
